3 compounds from patent US4446312A, “C-β-D-Xylopyranoside series compounds” (Seikagaku Kogyo Co., Ltd., priority 1980, dated 1984) can be followed below.

The subject of data set [1] is Sarcoma-180. Description: Activity against a transplantable cancer, Sarcoma-180. In kind it is in vivo, ICR-JCL mice. Particulars: 100 mg/Kg ip once a day for 10 days, starting 24 hrs. after inoculation. As for the experimental part:
Sarcoma-180 cells (1×10^6 cells) were inoculated subcutaneously into the back skin of each of ICR-JCL mice.
Chemotherapy was given intraperitoneally 24 hrs. after inoculation and performed once a day for 10 days. Each specimen to be administered was prepared by dissolving or suspending 30 mg of each compound according to this invention in 1 ml of a pysiological saline or in 1 ml of a 0.2% solution of carboxymethylcellulose in a physiological saline, respectively.
All the solutions and the suspensions thus prepared were injected at a volume of 0.1 ml as a single dose (100 mg/Kg).
The inhibition ratio (%) was calculated according to the following equation: […]
wherein T represents the mean weight of the tumor Sarcoma-180 in a tested group of mice; and C represents the mean weight of the tumor in a control group of mice.

Data set [2] is described as follows: Acute toxicity by oral or intraperitoneal administration to ddY mice. Particulars: mouse, in vivo, 7 days, Litchfield-Wilcoxon. Here is the method: The acute toxicity of the compound according to this invention was determined by forced oral or intraperitoneal administration thereof to ddY mice.
To prepare each specimen to be administered, a predetermined amount of each compound shown in Table 1 was dissolved in a physiological saline or suspended in a 0.2% solution of carboxymethylcellulose in a physiological saline. Each specimen was administered orally to a ddY mouse via its stomach tube or injected intraperitoneally.

For data set [3], the system named is synthesis of chondroitin sulfate (glycosaminoglycan) in epiphysial cartilages. Briefly: Effect on synthesis of chondroitin sulfate (35S labelled glycosaminoglycan) in epiphysial cartilage. In kind it is cell-based, chick embryos. An excerpt:
In each Figure, the vertical axis denotes the amount of ^35 S labelled chondroitin sulfate (^35 S cpm×10^-4 /μmol·uronic acid), and the horizontal axis denotes the concentration (mM) of each xylopyranoside compound in the culture medium, and
x x: Total uptake amount of ^35 S labelled chondroitin sulfate,
: Amount of ^35 S labelled chondroitin sulfate in culture medium, and
: Amount of ^35 S labelled chondroitin sulfate in tissue.
Epiphysial cartilages were taken from chick embryos aged 12 days in the Tyrode's medium under ice-cooling, and excess tissues were removed therefrom. To 150 mg of cartilages corresponding to five embryos, 5 ml of BGJb [an entirely synthetic culture medium prepared according to a recipe of GIBCO (Grand Island Biological Company)] was added, followed by pre-incubation at a temperature of 37° C. After replacing the culture medium, further 1 ml of BGJb and 5μCi Na2^35 SO4 were added, and the culture system was kept at 37° C. for 3 hours. The culture medium was then replaced by a fresh chase medium containing no isotope. After keeping the culture system at 37° C. for 1 hour, the culture medium was separated from the tissues. To study the effects of the xyloside compound on the synthesis of glycosaminoglycan, the xyloside compound was added in the predetermined concentration to the pre-incubation and incubation media.
After the incubation, the labeled medium containing Na2^35 SO4 was combined with the chase medium. Pronase-P was added thereto in a 0.5 M tris-HCl buffer solution (pH 8.0), and the resulting mixture was digested at 50° C. for 16 hours. The digested reaction mixture was then subjected to gel filtration through a column (1.5×14 cm) packed with Bio-Gel P-2 (available from Bio-Rad Company) using a 0.2 M ammonium formate solution as elute. In this way, the Vo fraction was collected and was then freeze-dried to give crude glycosaminoglycan.
On the other hand, ice-cooled 4 M guanidine hydrochloride was added to the tissues which were previously separated from the culture medium. The resulting mixture was left to stand overnight at a temperature of -20° C., and then homogenized. The obtained homogenate was left to stand overnight at room temperature and centrifuged at a speed of 8,500 rpm to obtain a supernatant. To the obtained liquid, water was added in an amount threefold that of the supernatant. Then, a 95% ethyl alcohol (containing 1.3% of potassium acetate) was added to the resulting mixture in an amount threefold that of the mixture to obtain a precipitate. This procedure was repeated twice, and the combined precipitates were dried in a desiccator. The obtained precipitates were dissolved in a 0.02 M tris-HCl buffer solution (pH 8.0) and digested with Pronase-P (trade name) (available from Kaken Kagaku Co., Ltd.) in the manner similar to the culture medium described above, thereby obtaining crude glycosaminoglycan.
As the xyloside compound, conventional O-paranitrophenyl-β-D-xylopyranoside, and two compounds according to the present invention viz. C-n-butyl-β-D-xylopyranoside and C-ethyl-β-D-xylopyranoside were used. The effects of these xyloside compounds on the total amount of ^35 S labelled glycosaminoglycan synthesized (^35 S uptake amount), the amount thereof liberated to the culture medium and the amount thereof remaining in the tissues were as shown in FIGS. 1 to 3.

Setting [4] is: ip, intraperitoneal, read-out: LD50 (ip).

Like-named read-outs stand apart in the source and are kept apart here.

The term LD50 denotes the dose at which mortality reaches 50%.

`CC[C@@H]1OC[C@@H](O)[C@H](O)[C@H]1O` [C--Ethyl-β-D-xylopyranoside, C-Ethyl-β-D-xylopyranoside]: the “I.R. (inhibition ratio, tumor weight)” value in data set [1] was 52.8%. In addition, the LD50 at 168 h in data set [2] (setting [4]) stood at 2400 mg/kg; in data set [2] (oral, read-out: LD50 (po)), 6900 mg/kg.
The like results for `CCCC[C@@H]1OC[C@@H](O)[C@H](O)[C@H]1O` [C--n-Butyl-β-D-xylopyranoside, C-n-Butyl-β-D-xylopyranoside] were, in that order, 69.2%, 2400 mg/kg and 5800 mg/kg.
As to `O=[N+]([O-])c1ccc(O[C@@H]2OC[C@@H](O)[C@H](O)[C@H]2O)cc1` [O-paranitrophenyl-β-D-xylopyranoside], the “Effectiveness as initiator for the synthesis of chondroitin sulfate” value in data set [3] is on record as “extremely effective”. Besides, the “35S uptake of glycosaminoglycan” value in data set [3] (1 mM) was 40,800 count per minute (cpm). Moreover, the activity at 1000 µM in data set [3] (Gallus gallus, 1 mM, read-out: 35S labelled glycosaminoglycan liberated to the culture medium) amounted to 95%; in data set [3] (Gallus gallus, 1 mM, read-out: Amount of 35S labelled glycosaminoglycan remaining in the tissues), 11%. For the same compound, the fold induction at 1000 µM in data set [3] (Gallus gallus, 1 mM, read-out: 35S uptake of glycosaminoglycan relative to control) stood at 2.35. In addition, the “35S uptake of glycosaminoglycan, concentration dependence” value in data set [3] (concentration rising from 0.05 mM to 1.0 mM) is on record as “increased”.
